Holding throughout (test): biochemical
Parameters in all cases: KINOMEscan competition binding panel (Eurofins DiscoverX), single concentration, percent inhibition
What all share (conditions): read-out: 15 at 1 µM % inhibition

For one assay, the target named is T1, PKAC-alpha (Homo sapiens, UniProt P17612).
T1 construct: gene PRKACA
The procedure, abridged: (§1)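 Selectivity profile from a KINOMEscan run against >400 human kinases; test concentration 1 µM.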

The next assay addresses EGFR(L858R,T790M) (Homo sapiens, UniProt P00533, L858R/T790M). The procedure, abridged: as §1
The next assay addresses TEC (Homo sapiens, UniProt P42680). The procedure, abridged: as §1
The target in the next assay is PAK2 (Homo sapiens, UniProt Q13177). The procedure, abridged:
as §1

Another assay deals with T2, DCAMKL3 (Homo sapiens, UniProt Q9C098).
T2 construct: gene DCLK3
The procedure, abridged:
as §1

The target in another assay is ACVR1 (Homo sapiens, UniProt Q04771). The procedure, abridged: as §1
Another assay deals with SGK2 (Homo sapiens, UniProt Q9HBY8). The procedure, abridged:
as §1

The target in a further assay is RAF1 (Homo sapiens, UniProt P04049). The procedure, abridged: as §1
Sequence of RAF1 (P04049 whole entry): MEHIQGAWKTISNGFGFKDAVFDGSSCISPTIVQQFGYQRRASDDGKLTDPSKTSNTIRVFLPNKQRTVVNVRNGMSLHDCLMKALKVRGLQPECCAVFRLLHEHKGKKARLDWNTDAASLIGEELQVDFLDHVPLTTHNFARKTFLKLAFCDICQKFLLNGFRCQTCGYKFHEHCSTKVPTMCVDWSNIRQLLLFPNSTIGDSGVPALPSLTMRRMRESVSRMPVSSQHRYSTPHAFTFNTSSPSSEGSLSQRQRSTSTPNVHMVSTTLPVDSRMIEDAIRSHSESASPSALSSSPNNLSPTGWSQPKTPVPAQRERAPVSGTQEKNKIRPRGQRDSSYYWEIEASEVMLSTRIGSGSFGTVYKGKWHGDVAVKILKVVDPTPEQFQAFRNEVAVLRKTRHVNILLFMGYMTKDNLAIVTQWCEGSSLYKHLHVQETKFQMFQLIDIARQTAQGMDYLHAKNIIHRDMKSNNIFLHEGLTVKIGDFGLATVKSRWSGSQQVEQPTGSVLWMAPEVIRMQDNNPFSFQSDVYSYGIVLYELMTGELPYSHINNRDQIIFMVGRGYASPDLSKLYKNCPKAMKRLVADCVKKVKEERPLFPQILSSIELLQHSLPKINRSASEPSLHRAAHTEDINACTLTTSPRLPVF
The next assay addresses FLT3(D835Y) (Homo sapiens, UniProt P36888, D835Y). The procedure, abridged: as §1
The next assay deals with T3, PIP5K2C (Homo sapiens, UniProt Q8TBX8).
T3 construct: gene PIP4K2C
In a few lines: as §1

In another assay the target is DAPK2 (Homo sapiens, UniProt Q9UIK4). In a few lines: as §1
The next assay has as its target NEK2 (Homo sapiens, UniProt P51955). The procedure, abridged: as §1
A further assay concerns the target TESK1 (Homo sapiens, UniProt Q15569). The procedure, abridged:
as §1

In a further assay the target is PIK3CA(M1043I) (Homo sapiens, UniProt P42336, M1043I). In a few lines:
as §1

A further assay has as its target ULK3 (Homo sapiens, UniProt Q6PHR2). The procedure, abridged:
as §1

In another assay the target is T4, VPS34 (Homo sapiens, UniProt Q8NEB9).
T4 construct: gene PIK3C3
The procedure, abridged:
as §1

The target of a further assay is T5, MLCK (Homo sapiens, UniProt Q32MK0).
T5 construct: gene MYLK3
The procedure, abridged:
as §1

A further assay deals with MAP3K1 (Homo sapiens, UniProt Q13233). In a few lines:
as §1

A further assay deals with STK35 (Homo sapiens, UniProt Q8TDR2). In a few lines: as §1
Sequence of STK35 (Q8TDR2 whole entry): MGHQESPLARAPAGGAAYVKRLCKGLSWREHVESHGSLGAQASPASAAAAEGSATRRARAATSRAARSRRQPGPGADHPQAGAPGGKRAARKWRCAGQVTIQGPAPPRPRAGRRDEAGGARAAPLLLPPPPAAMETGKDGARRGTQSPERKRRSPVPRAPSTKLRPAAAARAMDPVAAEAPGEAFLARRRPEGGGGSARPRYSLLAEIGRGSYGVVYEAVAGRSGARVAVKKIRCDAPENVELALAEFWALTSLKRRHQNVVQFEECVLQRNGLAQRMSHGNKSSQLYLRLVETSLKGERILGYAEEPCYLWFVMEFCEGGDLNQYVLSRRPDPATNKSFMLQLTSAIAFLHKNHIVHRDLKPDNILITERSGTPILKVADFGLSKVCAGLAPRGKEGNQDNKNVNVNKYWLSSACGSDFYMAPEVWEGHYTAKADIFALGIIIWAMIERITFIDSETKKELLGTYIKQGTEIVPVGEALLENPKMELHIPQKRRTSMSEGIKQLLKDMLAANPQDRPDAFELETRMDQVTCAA
In another assay the target is T6, MLK1 (Homo sapiens, UniProt P80192).
T6 construct: gene MAP3K9
The procedure, abridged: as §1

The next assay concerns the target T7, MEK6 (Homo sapiens, UniProt P52564).
T7 construct: gene MAP2K6
The procedure, abridged:
as §1

A further assay concerns the target HIPK3 (Homo sapiens, UniProt Q9H422). In a few lines:
as §1

The target in the next assay is ROS1 (Homo sapiens, UniProt P08922). The procedure, abridged: as §1
Sequence of ROS1 (P08922 whole entry): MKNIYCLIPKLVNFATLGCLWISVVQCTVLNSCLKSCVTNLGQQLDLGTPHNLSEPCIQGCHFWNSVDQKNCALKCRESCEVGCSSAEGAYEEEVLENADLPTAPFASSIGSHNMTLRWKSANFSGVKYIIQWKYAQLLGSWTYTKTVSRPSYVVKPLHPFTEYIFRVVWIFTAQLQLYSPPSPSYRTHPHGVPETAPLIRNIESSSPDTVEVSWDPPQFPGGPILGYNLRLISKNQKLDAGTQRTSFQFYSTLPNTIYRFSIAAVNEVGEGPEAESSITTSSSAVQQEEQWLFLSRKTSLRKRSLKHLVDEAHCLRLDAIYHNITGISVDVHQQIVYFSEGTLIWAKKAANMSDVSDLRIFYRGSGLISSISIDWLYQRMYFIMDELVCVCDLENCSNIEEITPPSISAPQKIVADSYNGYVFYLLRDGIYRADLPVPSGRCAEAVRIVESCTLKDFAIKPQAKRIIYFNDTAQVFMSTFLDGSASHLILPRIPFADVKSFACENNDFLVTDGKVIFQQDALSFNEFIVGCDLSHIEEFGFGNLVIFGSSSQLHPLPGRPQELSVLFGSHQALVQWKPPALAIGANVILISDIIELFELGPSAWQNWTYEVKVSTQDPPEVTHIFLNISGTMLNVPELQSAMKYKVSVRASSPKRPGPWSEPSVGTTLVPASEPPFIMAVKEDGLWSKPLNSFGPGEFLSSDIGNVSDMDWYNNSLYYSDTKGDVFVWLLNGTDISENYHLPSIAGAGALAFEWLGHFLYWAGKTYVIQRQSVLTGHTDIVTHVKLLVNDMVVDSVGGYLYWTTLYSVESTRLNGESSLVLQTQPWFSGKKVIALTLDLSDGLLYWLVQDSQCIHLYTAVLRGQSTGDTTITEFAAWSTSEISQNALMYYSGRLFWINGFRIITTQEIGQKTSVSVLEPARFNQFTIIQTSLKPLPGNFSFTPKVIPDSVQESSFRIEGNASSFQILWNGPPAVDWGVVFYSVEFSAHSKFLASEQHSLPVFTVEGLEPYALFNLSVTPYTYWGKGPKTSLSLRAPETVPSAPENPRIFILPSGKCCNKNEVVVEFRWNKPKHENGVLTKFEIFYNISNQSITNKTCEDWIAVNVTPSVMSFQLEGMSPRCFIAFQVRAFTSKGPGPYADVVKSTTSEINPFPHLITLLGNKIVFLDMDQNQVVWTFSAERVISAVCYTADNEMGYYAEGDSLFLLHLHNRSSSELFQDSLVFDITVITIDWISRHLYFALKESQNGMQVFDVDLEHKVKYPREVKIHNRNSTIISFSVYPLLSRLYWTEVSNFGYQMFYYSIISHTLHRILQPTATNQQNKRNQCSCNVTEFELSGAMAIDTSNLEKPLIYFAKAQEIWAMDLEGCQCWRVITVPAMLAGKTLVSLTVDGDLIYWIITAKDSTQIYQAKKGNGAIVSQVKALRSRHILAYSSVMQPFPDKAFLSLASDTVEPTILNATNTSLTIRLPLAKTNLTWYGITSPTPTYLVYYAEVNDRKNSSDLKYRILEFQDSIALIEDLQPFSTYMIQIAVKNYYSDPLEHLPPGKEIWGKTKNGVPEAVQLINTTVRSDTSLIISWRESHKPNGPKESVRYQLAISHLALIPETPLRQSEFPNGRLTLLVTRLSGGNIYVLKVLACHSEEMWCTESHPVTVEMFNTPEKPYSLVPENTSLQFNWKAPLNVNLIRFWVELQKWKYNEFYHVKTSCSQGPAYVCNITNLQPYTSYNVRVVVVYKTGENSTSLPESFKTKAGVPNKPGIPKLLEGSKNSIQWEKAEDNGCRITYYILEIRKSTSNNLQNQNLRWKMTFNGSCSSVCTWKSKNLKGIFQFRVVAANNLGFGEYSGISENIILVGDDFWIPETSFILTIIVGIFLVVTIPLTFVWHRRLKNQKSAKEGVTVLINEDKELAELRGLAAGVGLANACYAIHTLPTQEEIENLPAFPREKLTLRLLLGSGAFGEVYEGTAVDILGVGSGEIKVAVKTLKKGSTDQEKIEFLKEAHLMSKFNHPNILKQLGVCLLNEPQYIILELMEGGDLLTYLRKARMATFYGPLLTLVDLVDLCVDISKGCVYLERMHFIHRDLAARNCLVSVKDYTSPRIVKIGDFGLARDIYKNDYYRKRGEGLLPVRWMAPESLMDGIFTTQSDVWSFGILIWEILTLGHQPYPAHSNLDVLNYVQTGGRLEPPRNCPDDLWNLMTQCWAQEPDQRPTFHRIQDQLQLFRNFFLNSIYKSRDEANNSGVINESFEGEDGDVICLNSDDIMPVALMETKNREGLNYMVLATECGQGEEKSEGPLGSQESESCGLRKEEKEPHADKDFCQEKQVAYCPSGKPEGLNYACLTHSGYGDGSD
The next assay has as its target FLT3(D835H) (Homo sapiens, UniProt P36888, D835H). The procedure, abridged:
as §1

Sequence of TEC (P42680 whole entry): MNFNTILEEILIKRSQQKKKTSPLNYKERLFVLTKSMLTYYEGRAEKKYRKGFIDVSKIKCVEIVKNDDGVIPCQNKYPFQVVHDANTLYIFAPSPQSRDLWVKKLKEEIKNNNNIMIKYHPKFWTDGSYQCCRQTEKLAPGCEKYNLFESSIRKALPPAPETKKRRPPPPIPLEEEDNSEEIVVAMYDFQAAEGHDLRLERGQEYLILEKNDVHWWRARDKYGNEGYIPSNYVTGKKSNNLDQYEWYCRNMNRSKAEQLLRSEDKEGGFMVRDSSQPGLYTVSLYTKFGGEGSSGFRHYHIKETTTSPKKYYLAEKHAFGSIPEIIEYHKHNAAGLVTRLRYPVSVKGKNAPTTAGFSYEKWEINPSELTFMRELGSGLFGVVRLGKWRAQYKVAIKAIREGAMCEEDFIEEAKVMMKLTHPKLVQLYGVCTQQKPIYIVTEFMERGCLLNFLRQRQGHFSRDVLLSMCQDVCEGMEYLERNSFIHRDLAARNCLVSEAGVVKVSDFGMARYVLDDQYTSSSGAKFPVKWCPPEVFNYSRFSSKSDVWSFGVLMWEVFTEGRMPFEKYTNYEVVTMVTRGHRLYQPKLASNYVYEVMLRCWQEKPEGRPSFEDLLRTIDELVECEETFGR
Sequence of ULK3 (Q6PHR2 whole entry): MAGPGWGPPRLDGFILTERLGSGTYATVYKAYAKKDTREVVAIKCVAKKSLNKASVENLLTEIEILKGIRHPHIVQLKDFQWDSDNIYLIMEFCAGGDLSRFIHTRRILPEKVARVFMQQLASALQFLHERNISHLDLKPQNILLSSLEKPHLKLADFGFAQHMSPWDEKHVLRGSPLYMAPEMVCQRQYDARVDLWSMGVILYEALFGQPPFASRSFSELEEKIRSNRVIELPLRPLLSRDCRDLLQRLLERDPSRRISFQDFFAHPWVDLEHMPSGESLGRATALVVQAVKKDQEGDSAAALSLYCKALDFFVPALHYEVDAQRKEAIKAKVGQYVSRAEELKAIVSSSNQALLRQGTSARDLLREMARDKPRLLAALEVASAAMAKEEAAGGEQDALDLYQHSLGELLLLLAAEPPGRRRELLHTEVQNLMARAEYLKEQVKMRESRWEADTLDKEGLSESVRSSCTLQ
T7 sequence (P52564 whole entry): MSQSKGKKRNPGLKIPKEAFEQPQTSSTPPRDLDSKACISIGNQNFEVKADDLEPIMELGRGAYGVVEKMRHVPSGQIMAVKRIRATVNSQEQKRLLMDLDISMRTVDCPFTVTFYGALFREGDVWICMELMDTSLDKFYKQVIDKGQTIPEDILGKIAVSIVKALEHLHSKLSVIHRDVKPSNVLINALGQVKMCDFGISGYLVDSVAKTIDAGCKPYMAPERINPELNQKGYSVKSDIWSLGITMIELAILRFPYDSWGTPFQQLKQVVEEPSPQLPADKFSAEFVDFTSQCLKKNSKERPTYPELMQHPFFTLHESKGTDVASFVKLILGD

`CNS(=O)(=O)c1ccc(N(C)C)c(Nc2nc(C)nc3cc(OC)c(OC)cc23)c1` [compound 15, 3-((6,7-dimethoxy-2-methylquinazolin-4-yl)amino)-4-(dimethylamino)-N-methylbenzenesulfonamide]: the inhibition at 1 µM at PKAC-alpha is 0%; at EGFR(L858R,T790M), 16%; at TEC it was 13%; at PAK2, 14%; on DCAMKL3 it was 6%; at ACVR1, 0%. Besides, the inhibition at 1 µM came to 0% on SGK2; 0% at RAF1; 4% on FLT3(D835Y); 18% on PIP5K2C; 0% on DAPK2; 1% at NEK2. For the same compound, the inhibition at 1 µM at TESK1 amounted to 1%; at PIK3CA(M1043I), 0%; at ULK3 it was 23%; on VPS34, 25%; on MLCK it was 4%; on MAP3K1 it was 27%. Also, the inhibition at 1 µM at STK35 came to 0%; on MLK1, 0%; at MEK6 it was 0%; at HIPK3, 28%; on ROS1, 0%; on FLT3(D835H), 10%.

The values above are taken from PMC7180948, “New Insights into 4-Anilinoquinazolines as Inhibitors of Cardiac Troponin I–Interacting Kinase (TNNi3K)” (Molecules, 2020).
